According to patent US12473278B2 (Industry—University Cooperation Foundation Hangyang …, priority 2019, dated 2025):
Where two headings read alike, the source gives them in different places.

Experiments:
FMS = FMS (Homo sapiens (Human), UniProt P07333); experiment: Kinase panel screening; type: biochemical
FLT3 [1] = biological target: T1, FLT3 (Homo sapiens (Human), UniProt P36888); experiment: Measurement of FLT3 enzyme activity; type: biochemical
Description: Measurement of FLT3 Enzyme Activity
A change in FLT3 enzyme activity by treatment with the benzimidazole derivatives of the following Table 1 according to the present invention was confirmed by IC50.

FLT3 (ITD) = experiment: Kinase panel screening; settings: single dose of 10 μM
Description: (§1) Measurement of Inhibitory Activity Against Various Protein Kinases

FLT3 [2] = biological target: T1, FLT3; experiment: Kinase panel screening; settings: FLT3; single dose of 10 μM
Description: as §1

RAFI = RAFI (Homo sapiens (Human), UniProt P04049); experiment: Kinase panel screening; settings: read-out: % inhibition rate
Chain of RAFI (P04049 whole entry): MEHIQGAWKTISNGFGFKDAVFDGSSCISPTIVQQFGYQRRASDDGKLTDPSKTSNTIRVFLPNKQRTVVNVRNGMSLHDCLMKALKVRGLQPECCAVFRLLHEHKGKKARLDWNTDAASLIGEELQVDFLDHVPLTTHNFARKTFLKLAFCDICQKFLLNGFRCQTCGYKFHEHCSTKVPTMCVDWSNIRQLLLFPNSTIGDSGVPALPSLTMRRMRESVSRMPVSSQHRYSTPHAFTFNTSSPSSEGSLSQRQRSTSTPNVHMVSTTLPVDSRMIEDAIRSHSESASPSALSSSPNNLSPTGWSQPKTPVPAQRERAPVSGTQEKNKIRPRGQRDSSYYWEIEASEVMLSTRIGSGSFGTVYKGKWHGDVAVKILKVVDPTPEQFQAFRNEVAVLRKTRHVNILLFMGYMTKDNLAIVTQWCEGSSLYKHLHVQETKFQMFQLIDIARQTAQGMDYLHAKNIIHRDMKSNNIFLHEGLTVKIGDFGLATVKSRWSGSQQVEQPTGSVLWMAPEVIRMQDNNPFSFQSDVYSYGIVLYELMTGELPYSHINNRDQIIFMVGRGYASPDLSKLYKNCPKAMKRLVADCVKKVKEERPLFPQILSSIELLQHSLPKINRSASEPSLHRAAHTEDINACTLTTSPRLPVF
Description: as §1

FGFR3 = FGFR3 (Homo sapiens (Human), UniProt P22607); experiment: Kinase panel screening; settings: read-out: Staurosporine IC50; FGFR3; control compound per footnote b
Chain of FGFR3 (P22607 23-806, species assumed): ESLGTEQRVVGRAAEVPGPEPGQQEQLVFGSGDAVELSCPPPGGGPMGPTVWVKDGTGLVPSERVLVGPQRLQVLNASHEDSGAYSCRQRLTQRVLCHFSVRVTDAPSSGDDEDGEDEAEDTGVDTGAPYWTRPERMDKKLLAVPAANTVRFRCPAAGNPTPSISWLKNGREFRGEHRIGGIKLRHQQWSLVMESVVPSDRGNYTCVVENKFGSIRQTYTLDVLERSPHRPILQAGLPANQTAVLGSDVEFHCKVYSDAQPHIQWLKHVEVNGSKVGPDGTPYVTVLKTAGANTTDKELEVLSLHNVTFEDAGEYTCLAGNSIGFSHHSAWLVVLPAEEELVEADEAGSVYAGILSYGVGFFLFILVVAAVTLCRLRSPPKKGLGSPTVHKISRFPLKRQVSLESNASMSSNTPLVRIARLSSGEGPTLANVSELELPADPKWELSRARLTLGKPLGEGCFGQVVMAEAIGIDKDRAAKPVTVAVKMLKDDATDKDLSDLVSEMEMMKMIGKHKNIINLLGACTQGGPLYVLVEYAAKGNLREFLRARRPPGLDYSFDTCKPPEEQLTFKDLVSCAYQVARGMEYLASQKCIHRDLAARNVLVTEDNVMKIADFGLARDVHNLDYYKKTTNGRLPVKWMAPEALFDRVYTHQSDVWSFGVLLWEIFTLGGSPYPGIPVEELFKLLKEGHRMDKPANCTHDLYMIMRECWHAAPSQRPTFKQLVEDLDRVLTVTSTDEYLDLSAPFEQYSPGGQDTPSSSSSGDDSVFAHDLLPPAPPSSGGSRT
Description: as §1

[3] = FLT3 enzyme activity, read-out: FLT3 (IC50)
[4] = FLT3 kinase activity, read-out: IC50 against FLT3

T1 sequence (P36888 27-993): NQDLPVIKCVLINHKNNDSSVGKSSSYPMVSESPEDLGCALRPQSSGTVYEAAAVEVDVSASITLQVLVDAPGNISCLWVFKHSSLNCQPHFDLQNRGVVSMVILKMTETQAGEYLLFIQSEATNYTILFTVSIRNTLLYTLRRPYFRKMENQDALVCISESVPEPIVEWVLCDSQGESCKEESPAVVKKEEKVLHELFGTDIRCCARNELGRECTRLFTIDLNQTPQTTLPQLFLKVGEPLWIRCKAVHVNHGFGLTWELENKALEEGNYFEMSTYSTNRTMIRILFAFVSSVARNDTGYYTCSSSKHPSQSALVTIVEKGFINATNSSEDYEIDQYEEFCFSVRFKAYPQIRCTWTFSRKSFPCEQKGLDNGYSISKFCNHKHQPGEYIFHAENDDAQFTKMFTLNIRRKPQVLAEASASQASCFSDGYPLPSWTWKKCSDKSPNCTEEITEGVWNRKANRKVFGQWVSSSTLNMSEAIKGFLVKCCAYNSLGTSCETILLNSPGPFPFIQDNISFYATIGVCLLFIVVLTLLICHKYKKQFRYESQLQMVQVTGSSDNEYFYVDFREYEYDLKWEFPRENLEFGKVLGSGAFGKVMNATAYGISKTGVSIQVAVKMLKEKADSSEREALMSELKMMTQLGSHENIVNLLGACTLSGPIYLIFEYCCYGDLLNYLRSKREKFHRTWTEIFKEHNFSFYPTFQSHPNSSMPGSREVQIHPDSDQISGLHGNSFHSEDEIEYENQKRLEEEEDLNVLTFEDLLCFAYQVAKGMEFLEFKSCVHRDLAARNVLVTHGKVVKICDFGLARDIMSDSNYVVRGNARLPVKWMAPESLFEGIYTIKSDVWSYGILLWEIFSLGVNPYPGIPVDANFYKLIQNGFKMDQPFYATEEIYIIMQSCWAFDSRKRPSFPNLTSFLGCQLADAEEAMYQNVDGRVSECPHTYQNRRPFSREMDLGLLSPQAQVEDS
Chain of FMS (P07333 20-972, species assumed): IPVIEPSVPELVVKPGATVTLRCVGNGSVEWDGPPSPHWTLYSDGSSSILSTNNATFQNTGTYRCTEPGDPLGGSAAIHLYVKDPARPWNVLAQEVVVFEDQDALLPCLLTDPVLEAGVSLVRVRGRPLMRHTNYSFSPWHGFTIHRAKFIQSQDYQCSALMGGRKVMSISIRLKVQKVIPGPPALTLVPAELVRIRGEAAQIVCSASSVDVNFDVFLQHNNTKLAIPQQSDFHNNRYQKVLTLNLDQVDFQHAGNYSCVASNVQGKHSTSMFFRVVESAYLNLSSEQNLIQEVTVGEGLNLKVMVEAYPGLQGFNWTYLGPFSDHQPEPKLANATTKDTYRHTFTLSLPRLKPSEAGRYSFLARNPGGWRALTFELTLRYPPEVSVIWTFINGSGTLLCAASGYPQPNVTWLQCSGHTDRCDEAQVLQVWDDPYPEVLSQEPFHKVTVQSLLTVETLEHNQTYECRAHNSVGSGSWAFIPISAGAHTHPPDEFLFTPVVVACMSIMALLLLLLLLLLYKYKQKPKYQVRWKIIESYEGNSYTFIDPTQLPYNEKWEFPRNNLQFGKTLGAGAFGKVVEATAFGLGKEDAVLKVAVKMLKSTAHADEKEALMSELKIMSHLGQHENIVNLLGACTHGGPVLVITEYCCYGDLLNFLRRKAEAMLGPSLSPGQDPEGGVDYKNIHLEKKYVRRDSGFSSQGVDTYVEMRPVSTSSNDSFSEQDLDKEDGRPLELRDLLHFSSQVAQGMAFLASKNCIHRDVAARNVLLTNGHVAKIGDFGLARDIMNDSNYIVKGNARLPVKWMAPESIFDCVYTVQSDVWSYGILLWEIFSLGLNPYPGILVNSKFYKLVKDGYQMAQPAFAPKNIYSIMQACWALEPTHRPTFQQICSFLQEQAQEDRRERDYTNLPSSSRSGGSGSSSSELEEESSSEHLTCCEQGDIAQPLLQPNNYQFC

SMILES	IC50 (FLT3 [1]; [3])	other results
Cc1oncc1C(=O)Nc1ccc2[nH]c(-c3cc(N4CCN(C)CC4)cc(C(F)(F)F)c3)nc2c1 [Compound 5a, 5-methyl-N-(2-(3-(4-methylpiperazin-1-yl)-5-(trifluoromethyl)phenyl)-1H-benz[d]imidazol-5-yl)isoxazole-4-carboxamide]	< 3 µM	inhibition at 10 µM (FMS; read-out: % inhibition rate): 0%; activity against other protein kinases, particularly FMS (in words) (FMS; single dose of 10 μM): did not exhibit significant activity; IC50 (FLT3 [1]; [4]): 0.495 µM; % inhibition rate (FLT3 (ITD)): 88.48%; % inhibition rate (FLT3 [2]): 89.97%; inhibition at 10 µM (RAFI): 8.47%
Cc1oncc1C(=O)Nc1ccc2[nH]c(-c3ccc(N4CCOCC4)c(C(F)(F)F)c3)nc2c1 [Compound 5c, 5-methyl-N-(2-(4-morpholino-3-(trifluoromethyl)phenyl)-1H-benz[d]imidazol-5-yl)isoxazole-4-carboxamide]	3 to 10 µM	IC50 (FLT3 [1]; [4]): 10 µM
Cc1cn(-c2cc(-c3nc4cc(NC(=O)c5cnoc5C)ccc4[nH]3)cc(C(F)(F)F)c2)cn1 [Compound 5d, 5-methyl-N-(2-(3-(4-methyl-1H-imidazol-1-yl)-5-(trifluoromethyl)phenyl)-1H-benz[d]imidazol-5-yl)isoxazole-4-carboxamide]	< 3 µM	–
Cc1oncc1C(=O)Nc1ccc2[nH]c(-c3cc(-n4cncc4C)cc(C(F)(F)F)c3)nc2c1 [Compound 5e, 5-methyl-N-(2-(3-(5-methyl-1H-imidazol-1-yl)-5-(trifluoromethyl)phenyl)-1H-benz[d]imidazol-5-yl)isoxazole-4-carboxamide]	< 3 µM	–
Cc1oncc1C(=O)Nc1ccc2[nH]c(-c3cc(-n4ccnc4C)cc(C(F)(F)F)c3)nc2c1 [Compound 5f, 5-methyl-N-(2-(3-(2-methyl-1H-imidazol-1-yl)-5-(trifluoromethyl)phenyl)-1H-benz[d]imidazol-5-yl)isoxazol-4-carboxamide]	> 10 µM	–
Cc1oncc1C(=O)Nc1ccc2[nH]c(-c3cc(F)cc(C(F)(F)F)c3)nc2c1 [Compound 5h, N-(2-(3-fluoro-5-(trifluoromethyl)phenyl)-1H-benz[d]imidazol-5-yl)-5-methylisoxazole-4-carboxamide]	> 10 µM	–
Cc1oncc1C(=O)Nc1ccc2[nH]c(-c3cc(OC4CCN(C)CC4)cc(C(F)(F)F)c3)nc2c1 [Compound 5i, 5-methyl-N-(2-(3-((1-methylpiperidin-4-yl)oxy)-5-(trifluoromethyl)phenyl)-1H-benz[d]imidazol-5-yl)isoxazole-4-carboxamide]	3 to 10 µM	–
Cc1oncc1C(=O)Nc1ccc2[nH]c(-c3ccc(N4CCN(C)CC4)c(C(F)(F)F)c3)nc2c1 [Compound 5j, 5-methyl-N-(2-(4-(4-methylpiperazin-1-yl)-3-(trifluoromethyl)phenyl)-1H-benz[d]imidazol-5-yl)isoxazole-4-carboxamide]	> 10 µM	–
Cc1oncc1C(=O)Nc1ccc2[nH]c(-c3ccc(Cl)c(C(F)(F)F)c3)nc2c1 [Compound 5k, N-(2-(4-chloro-3-(trifluoromethyl)phenyl)-1H-benz[d]imidazol-5-yl)-5-methylisoxazole-4-carboxamide]	3 to 10 µM	–
Cc1oncc1C(=O)Nc1ccc2[nH]c(-c3ccc(Cl)cc3)nc2c1 [Compound 5l, N-(2-(4-chlorophenyl)-1H-benz[d]imidazol-5-yl)-5-methylisoxazole-4-carboxamide]	3 to 10 µM	–
CCN1CCN(Cc2cc(-c3nc4cc(NC(=O)c5cnoc5C)ccc4[nH]3)cc(C(F)(F)F)c2)CC1 [Compound 5m, N-(2-(3-((4-ethylpiperazin-1-yl)methyl)-5-(trifluoromethyl)phenyl)-1H-benz[d]imidazol-5-yl)-5-methylisoxazole-4-carboxamide]	3 to 10 µM	–
CCN1CCN(Cc2ccc(-c3nc4cc(NC(=O)c5cnoc5C)ccc4[nH]3)cc2C(F)(F)F)CC1 [Compound 5n, N-(2-(4-((4-ethylpiperazin-1-yl)methyl)-3-(trifluoromethyl)phenyl)-1H-benz[d]imidazol-5-yl)-5-methylisoxazole-4-carboxamide]	3 to 10 µM	–
CC(=O)N1CCC(c2nc3cc(NC(=O)c4cnoc4C)ccc3[nH]2)CC1 [Compound 5o, N-(2-(1-acetylpiperidin-4-yl)-1H-benz[d]imidazol-5-yl)-5-methylisoxazole-4-carboxamide]	> 10 µM	–
Cc1oncc1C(=O)Nc1ccc2[nH]c(C3CCCC3)nc2c1 [Compound 5p, N-(2-cyclopentyl-1H-benz[d]imidazol-5-yl)-5-methylisoxazole-4-carboxamide]	> 10 µM	–
Cc1oncc1C(=O)Nc1cccc2[nH]c(-c3cc(N4CCN(C)CC4)cc(C(F)(F)F)c3)nc12 [Compound 6a]	< 3 µM	–
Cc1oncc1C(=O)Nc1cccc2[nH]c(-c3ccc(N4CCOCC4)c(C(F)(F)F)c3)nc12 [Compound 6b, 5-methyl-N-(2-(4-morpholino-3-(trifluoromethyl)phenyl)-1H-benz[d]imidazol-4-yl)isoxazole-4-carboxamide]	> 10 µM	–
Cc1cn(-c2cc(-c3nc4c(NC(=O)c5cnoc5C)cccc4[nH]3)cc(C(F)(F)F)c2)cn1 [Compound 6c, 5-methyl-N-(2-(3-(4-methyl-1H-imidazol-1-yl)-5-(trifluoromethyl)phenyl)-1H-benz[d]imidazol-4-yl)isoxazole-4-carboxamide]	3 to 10 µM	–
O=C(Nc1ccc2[nH]nc(-c3ccncc3)c2c1)[C@@H]1CCN(CC(=O)N2CCN(c3ccc(-c4ncccn4)cc3)CC2)C1 [SCH772984, reference compound]	–	IC50 (FGFR3): 14.7 nM
